Test results as given in patent US20080299109A1, “MECHANISM OF ASTRICYTE-NEURON SIGNALING” (Korea Institute of Science and Technology, priority 2007, published 2008).

Legend:
PAR1−/− mouse astrocytes = assay: Fura-2 intracellular Ca2+ imaging in cultured PAR1−/− astrocytes; format: cell-based; conditions: 30 μM TFLLR, 30 nM thrombin, 10 μM ATP positive control
Method: Cultured astrocytes were prepared from P0-P3 postnatal mice obtained from KIST SPF. The cerebral cortex was dissected free of adherent meninges, minced, and dissociated into single cell suspension by trituration through a Pasteur pipette. All procedures involving the use of animals were reviewed and approved by the Emory University IACUC. Dissociated cells were plated onto either 12 mm glass coverslips or 6 well plates coated with 0.1 mg/ml poly-D-lysine. Cells were grown in a DMEM media (Gibco, cat# 11960-044) supplemented with 25 mM glucose, 10% heat-inactivated horse serum, and 10% heat-inactivated fetal bovine serum, 2 mM glutamine, and 1000 units/ml penicillin-streptomycin. Cultures were maintained at 37° C. in a humidified 5% CO2-containing atmosphere. Astrocyte cultures prepared in this way were previously determined by GFAP (glial fibrillary acidic protein) staining to be greater than 95% astrocytes (Nicole et al., 2005). In some experiments, the culture media was replaced 24 hours after plating with DMEM with all added components except glutamine, and cultures were maintained for 4 days before experimentation in glutamine-free media.
Cultured astrocytes were incubated with 5 µM Fura2-AM in […] pluronic acid (Molecular Probes) for 30 min at room temperature, and subsequently transferred to a microscope stage for imaging. […]

CA1 pyramidal cells = assay: Voltage clamp of CA1 pyramidal cells in hippocampal slices, low Mg2+; format: cell-based, rat; conditions: −60 mV, thrombin 30 nM, TFLLR 30 μM, with and without APV
synaptic NMDA receptors = assay: Evoked NMDA EPSC current-voltage relationship in CA1 pyramidal cells; format: cell-based, rat; conditions: 30 nM thrombin, 0.2 mM Mg^2+
Method: (§1) Young rats (Sprague-Dawley, age P15-P20) or mice (C57/B16, age P14-19) were deeply anesthetized with isoflurane and decapitated. The brain was rapidly removed and submerged in an ice-cold oxygenated artificial cerebrospinal fluid (ACSF) comprised of 130 mM NaCl, 24 mM NaHCO3, 3.5 mM KCl, 1.25 mM NaH2PO4, 1 mM CaCl2,3 mM MgCl2, and 10 mM glucose saturated with 95% O2/5% CO2, at pH 7.4.
Slices were placed on the stage of an upright microscope underneath a platinum and nylon restraining grid, and superfused with oxygenated ACSF at room temperature (23° C.), some experiments are performed at 34° C. by a temperature controller (TC-344B, Warner, Hamden). The standard ACSF recording solution was comprised of 130 mM NaCl, 24 mM NaHCO3, 3.5 mM KCl, 1.25 mM NaH2PO4, 1.5 mM CaCl2, 1.5 mM MgCl2, and 10 mM glucose saturated with 95% O2/5% CO2, at pH 7.4. […]
(§2) Synaptic responses were evoked by applying 0.1 ms current injection (1-100 μA) to a bipolar stimulating electrode placed in the stratum radiatum. Thrombin (Calbiochem) concentration was determined as described by Gingrich et al. (2000) using conversion of 1 U/ml=10 nM. […]
EPSCs were evoked by electrical stimulation of Schaffer collateral axons in the CA1 stratum radiatum, and recorded from CA1 pyramidal neurons under voltage clamp. […]

[1] = tested on: NMDA receptor-mediated component of the EPSP; assay: Current clamp EPSP recording in CA1 pyramidal cells; format: cell-based, rat; conditions: 30 μM TFLLR, 30 nM thrombin
Method: as §1
The hemisected brain was glued onto the stage of a vibrating microtome (Leica VT1000 S) and sections of 300 μm thickness were cut and stored in an incubation chamber at room temperature for about 1 h before use. […]
as §2
A series of current clamp experiments were carried out to directly measure the effects of PAR1 activation on the NMDA receptor-mediated component of the EPSP recorded in the presence of 1.5 mM Mg^2+. […]

With thrombin the “intracellular Ca^2+ concentration in PAR1−/− astrocytes” value (PAR1−/− mouse astrocytes) was “did not cause an increase”, the “amplitude of inward current” value (CA1 pyramidal cells; 0.5 μM TTX, 5 μM Mg^2+) was 8.8±3.1 pA and the membrane current variance (CA1 pyramidal cells; TTX, low Mg^2+) was 12.4±1.1 pA^2. The “Mg^2+ block of NMDA EPSCs at −60 mV” value (synaptic NMDA receptors) was “significantly less Mg^2+ block” and the “potentiation of synaptic NMDA component of EPSPs at 34° C.” value [1] was 120±6%.
